Measurements reported in the supplement of paper PMC10307832.

Legend:
Assay in all cases: relative viability (nuclei count vs DMSO), 5 days (fraction); higher = more cells survive
[1] = compound: CC(C)C[C@H](NC(=O)[C@H](CCc1ccccc1)NC(=O)CN1CCOCC1)C(=O)N[C@@H](Cc1ccccc1)C(=O)N[C@@H](CC(C)C)C(=O)[C@@]1(C)CO1 [Carfilzomib] + CS(=O)(=O)CCNCc1ccc(-c2ccc3ncnc(Nc4ccc(OCc5cccc(F)c5)c(Cl)c4)c3c2)o1 [Lapatinib] (partner 2 µM)
How it was run: (§1)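 Medians of duplicate plates are given as relative viability. That measure is the nuclei count in treated wells divided by the count in vehicle wells. Counts were taken on 4× images of lung cancer cell lines in 1536-well plates, 5 days after pin-tool dosing the day after seeding with one drug alone or a fixed anchor-drug dose plus five library-drug doses (not always all listed) in √10 steps.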

[2] = compound: O=C(c1cc(Cc2n[nH]c(=O)c3ccccc23)ccc1F)N1CCN(C(=O)C2CC2)CC1 [Olaparib] + COc1cccc2cc(-c3nc([C@H]4CC[C@H](C(=O)O)CC4)n4ncnc(N)c34)[nH]c12 [OSI-027] (partner 0.5 µM)
How it was run: as §1

[3] = compound: O=C(c1cc(Cc2n[nH]c(=O)c3ccccc23)ccc1F)N1CCN(C(=O)C2CC2)CC1 [Olaparib] + CS(=O)(=O)N1CCN(Cc2cc3nc(-c4cccc5[nH]ncc45)nc(N4CCOCC4)c3s2)CC1 [Pictilisib] (partner 1 µM)
How it was run: as §1

[4] = compound: O=C(c1cc(Cc2n[nH]c(=O)c3ccccc23)ccc1F)N1CCN(C(=O)C2CC2)CC1 [Olaparib] + Nc1nc2[nH]cc(CCc3ccc(C(=O)N[C@@H](CCC(=O)O)C(=O)O)cc3)c2c(=O)[nH]1 [Pemetrexed] (partner 0.2 µM)
How it was run: as §1

| Cell Line | relative viability ([1]; first compound 0.001 µM) | relative viability ([1]; first compound 0.003162 µM) | relative viability ([1]; first compound 0.01 µM) | relative viability ([1]; first compound 0.03162 µM) | relative viability ([1]; first compound 0.1 µM) | relative viability ([2]; first compound 0.08 µM) | relative viability ([2]; first compound 0.253 µM) | relative viability ([2]; first compound 2.53 µM) | relative viability ([2]; first compound 8 µM) | relative viability ([3]; first compound 0.08 µM) | relative viability ([3]; first compound 0.253 µM) | relative viability ([3]; first compound 2.53 µM) | relative viability ([3]; first compound 8 µM) | relative viability ([4]; first compound 0.08 µM) | relative viability ([4]; first compound 0.253 µM) | relative viability ([4]; first compound 2.53 µM) | relative viability ([4]; first compound 8 µM) |
| --- | --- | --- | --- | --- | --- | --- | --- | --- | --- | --- | --- | --- | --- | --- | --- | --- | --- |
| NCI-H1563 | 0.926 | 1.1 | 0.927 | 0.771 | 0.506 | 0.75 | 0.745 | 0.806 | 0.753 | 0.614 | 0.645 | 0.695 | 0.635 | 0.91 | 0.76 | 0.834 | 0.686 |
| H3255 | 0.252 | 0.338 | 0.259 | 0.225 | 0.296 | 0.591 | 0.56 | 0.764 | 0.548 | 0.478 | 0.406 | 0.445 | 0.386 | 0.598 | 0.58 | 0.577 | 0.597 |
| NCI-H1355 | 0.872 | 1.08 | 1.08 | 0.941 | 0.168 | 0.517 | 0.399 | 0.441 | 0.412 | 0.537 | 0.397 | 0.408 | 0.444 | 1.04 | 1.01 | 1.05 | 1.08 |
| UMC-11 | 0.857 | 1.02 | 0.783 | 0.509 | 0.182 | 0.474 | 0.392 | 0.481 | 0.334 | 0.909 | 0.687 | 0.658 | 0.307 | 0.806 | 0.683 | 0.691 | 0.537 |
| NCI-H1395 | 0.897 | 1.55 | 0.841 | 0.318 | 0.311 | 0.743 | 0.58 | 0.524 | 0.536 | 0.78 | 0.639 | 0.575 | 0.534 | 0.8 | 0.565 | 0.564 | 0.497 |
| EMC-BAC-2 | 0.89 | 0.958 | 0.879 | 0.843 | 0.471 | 0.41 | 0.364 | 0.357 | 0.358 | 0.662 | 0.5 | 0.524 | 0.496 | 0.473 | 0.478 | 0.472 | 0.491 |
| HCC-44 | 1.07 | 0.985 | 1.16 | 0.878 | 0.245 | 0.55 | 0.424 | 0.434 | 0.565 | 0.697 | 0.552 | 0.7 | 0.544 | 0.658 | 0.619 | 0.716 | 0.748 |
| PC-3 [JPC-3] | 0.42 | 0.455 | 0.463 | 0.435 | 0.209 | 0.825 | 0.711 | 0.824 | 0.747 | 0.857 | 0.592 | 0.712 | 0.673 | 1.1 | – | 1.26 | 1.05 |
| NCI-H1734 | 1.03 | 1.11 | 1.02 | 0.317 | 0.203 | 0.662 | 0.516 | 0.486 | 0.374 | 0.469 | 0.471 | 0.419 | 0.336 | 0.417 | 0.398 | 0.387 | 0.362 |
| HOP-62 | 1.16 | 1.21 | 1.06 | 0.308 | 0.0688 | 0.863 | 0.801 | 0.809 | 0.712 | 0.846 | 0.601 | 0.698 | 0.464 | 0.353 | 0.316 | 0.337 | 0.322 |
| HARA | 0.817 | 0.911 | 0.882 | 0.0695 | 0.0699 | 0.68 | 0.446 | 0.47 | 0.438 | 0.407 | 0.454 | 0.567 | 0.37 | 0.274 | 0.251 | 0.272 | 0.232 |
| NCI-H2023 | 0.734 | 0.979 | 0.925 | 0.302 | 0.0574 | 0.445 | 0.356 | 0.406 | 0.276 | 0.286 | 0.195 | 0.245 | 0.275 | 0.215 | 0.231 | 0.241 | 0.156 |
| NCI-H1993 | 0.729 | 0.89 | 0.704 | 0.632 | 0.493 | 0.585 | 0.502 | 0.389 | 0.527 | 0.827 | 0.839 | 0.719 | 0.869 | 0.622 | 0.658 | 0.627 | 0.556 |
| NCI-H460 | 0.954 | 1.18 | 0.955 | 0.0195 | 0.0166 | 0.677 | 0.643 | 0.434 | 0.215 | 0.404 | 0.319 | 0.342 | 0.27 | 0.055 | 0.0542 | 0.0654 | 0.0663 |
| NCI-H596 | 0.965 | 1.03 | 1.01 | 0.805 | 0.207 | 0.718 | 0.782 | 0.718 | 0.642 | 0.417 | 0.381 | 0.45 | 0.394 | 0.592 | 0.496 | 0.493 | 0.543 |
| COR-L 105 | 0.348 | 0.377 | 0.386 | 0.324 | 0.289 | 0.77 | 0.679 | 0.487 | 0.584 | 0.389 | 0.392 | 0.415 | 0.387 | 1.31 | 1 | 0.838 | 0.914 |
| NCI-H322M | 0.477 | 0.641 | 0.611 | 0.651 | 0.4 | 0.713 | 0.523 | 0.518 | 0.456 | 0.507 | 0.522 | 0.521 | 0.485 | 0.607 | 0.608 | 0.619 | 0.544 |
| HCC-827 | 0.175 | 0.164 | 0.166 | 0.258 | 0.154 | 0.772 | 0.732 | 0.872 | 0.65 | 0.905 | 0.781 | 1.07 | 0.95 | 0.27 | 0.275 | 0.253 | 0.261 |
| NCI-H1651 | 0.696 | 0.742 | 0.16 | 0.113 | 0.101 | 0.756 | 0.615 | 0.545 | 0.445 | 0.62 | 0.562 | 0.599 | 0.331 | 0.624 | 0.586 | 0.553 | 0.334 |
